One data set has as its target T1, Porcine PDH E1 (Sus scrofa, UniProt P29804).
T1 sequence (P29804 31-390): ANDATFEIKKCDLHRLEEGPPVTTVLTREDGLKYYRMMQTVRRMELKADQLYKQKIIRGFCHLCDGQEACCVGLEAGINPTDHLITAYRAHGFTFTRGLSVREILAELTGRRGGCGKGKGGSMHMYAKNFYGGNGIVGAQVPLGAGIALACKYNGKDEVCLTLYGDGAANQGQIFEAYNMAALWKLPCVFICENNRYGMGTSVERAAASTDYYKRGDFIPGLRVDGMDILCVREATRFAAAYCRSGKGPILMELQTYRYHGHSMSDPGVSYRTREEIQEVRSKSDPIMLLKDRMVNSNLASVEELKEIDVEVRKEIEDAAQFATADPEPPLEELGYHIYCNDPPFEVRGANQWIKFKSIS
The data set is described as follows: Porcine PDH E1 inhibitory activity assay (DCPIP reduction). The data set is classed as biochemical. The method, then: Porcine PDH E1 was purchased from Sigma. Porcine PDH E1 activity was determined by monitoring 2,6-dichlorophenolindophenol (DCPIP) reduction at 600 nm using a microplate reader (CLARIOstar) and conducted as described[5] with some modifications. […] The reaction buffer (50 mM KH2PO4 and 1 mM MgCl2, pH 7) contained thiamine pyrophosphate (TPP) at specified concentrations, 0.25 mM DCPIP, and 2 mg/mL porcine PDH E1. The reaction mixture was preincubated at 37 °C with the inhibitor for 30 min, and then the reaction was initiated by adding pyruvate to a final concentration of 50 mM. To determine the half-maximal inhibitory concentration (IC50), the TPP concentration was set at 60 μM with varying inhibitor concentrations. Specific activity was calculated using the molar extinction coefficient of DCPIP, 21 mM^–1 cm^–1.[28] The IC50 values were calculated from nonlinear regression curve fitting using GraphPad Prism.
Porcine PDH E1 inhibitory activity assay. Porcine PDH E1 was purchased from Sigma. Porcine PDH E1 activity was determined by monitoring 2,6-dichlorophenolindophenol (DCPIP) reduction at 600 nm using a microplate reader (CLARIOstar) and conducted as described3 with some modifications. The […]
buffer (50 mM KH2PO4 and 1 mM MgCl2, pH 7) contained thiamine pyrophosphate (TPP) at specified concentrations, 0.25 mM 2,6-dichlorophenolindophenol (DCPIP), and 2 mg/mL porcine PDH E1. The reaction mixture was preincubated at 37 °C with the inhibitor for 30 min, then reaction was initiated by adding pyruvate to a final concentration of 50 mM. To determine the half-maximal inhibitory concentration (IC50), TPP concentration was set at 60 µM with varying inhibitor concentrations. […]
values were calculated from non-linear regression curve fitting using GraphPad Prism. […]

Data set [1] in a line: PAMPA (parallel artificial membrane permeability assay). The data set is classed as in vitro ADME. The protocol:
PAMPA – methods and results (Table S2)
PAMPA was carried out in 96-well microtiter filter plates obtained from Millipore as described1 with some modifications. Each well of the filter plate was impregnated with 15 µL of 5% hexadecane dissolved in hexane (i.e. total amount of hexadecane: 0.75 µL) for at least 10 minutes in ventilated environment to allow for complete evaporation of hexane. Donor compartments were filled with 200 µL compound-containing donor solutions of compounds dissolved in 5% DMSO, phosphate buffered saline PBS) and connected to acceptor plate prefilled with buffer (5% DMSO in PBS, pH 7.4). The resulting sandwich was incubated at room temperature under gentle shaking and wrapped in wet paper towels to avoid evaporation. After 10 hours, the sandwich was disassembled and the solutions in the acceptor and donor were transferred to a disposable UV-transparent plate. UV absorption was measured at wavelengths between 220 and 340 nm using a microplate reader (CLARIOstar).
Compounds were tested at 500 µM. Calibration to determine concentration of compounds were performed with varying compound concentrations in buffer (5% DMSO in PBS).
The artificial membrane permeability is expressed as fraction absorbed (Fa%)2 or log Pe (log of the effective permeability)1. LogD values at pH 7.4 were calculated using MarvinSketch.
Fa% = 100 ∙CA ∙VA / CD0 ∙ VD where: CA = final drug concentration in the acceptor well (µM)
VA = volume in the acceptor well (cm3)
CD0 = Initial drug concentration in the donor well (µM)
VD = volume in the donor well (cm3) log P (cm/s) = log -ln 1-CA/Cequilibrium
S = surface area (cm2), typically 0.268 cm2
Cequilibrium = theoretical equilibrium concentration = [CD ∙VD+CA ∙VA] / [VD+VA] where: CD = final drug concentration in the donor well (µM)
CA = final drug concentration in the acceptor well (µM)
Table S2. Permeability data.
Compounds Fa (%) PAMPA log Pe (cm/s) cLogD (pH = 7.4)
In general terms: The PAMPA barrier holds no transporters, so it reflects passive diffusion.

A further data set concerns the target E. coli OGDH E1 (Escherichia coli, UniProt P0AFG3). The data set is described as follows: E. coli OGDH E1 inhibitory activity assay (DCPIP reduction). Format: biochemical. The protocol:
E. coli OGDH E1 was from material donated by R. Frank. E. coli OGDH E1 activity was determined by monitoring DCPIP reduction at 600 nm using a microplate reader (CLARIOstar) and conducted as described[5] with some modifications. […] The reaction buffer (50 mM KH2PO4 and 2 mM MgCl2, pH 7) contained TPP at specified concentrations, 0.5 mM DCPIP, and 6.7 mg/mL E. coli OGDH E1. The reaction mixture was preincubated at 37 °C with the inhibitor for 60 min, and then the reaction was initiated by adding α-ketoglutarate to a final concentration of 10 mM. To determine the IC50, the TPP concentration was set at 60 μM with varying inhibitor concentrations. Specific activity was calculated using the molar extinction coefficient of DCPIP, 21 mM^–1 cm^–1.[28] The IC50 values were calculated from nonlinear regression curve fitting using GraphPad Prism.
Enzyme inhibitory activity assays – methods and results (Figures S1-4) […]
The compound […]
E. coli OGDH E1 inhibitory activity assay. E. coli OGDH E1 was from material donated by R. Frank. E. coli OGDH E1 activity was determined by monitoring DCPIP reduction at 600 nm using a microplate reader (CLARIOstar) and conducted as described3 with some modifications. The percentage inhibition of compounds against E. coli OGDH E1 was assayed at 250 μM. The reaction buffer (50 mM KH 2PO4 and 2 mM MgCl2, pH 7) contained TPP at specified concentrations, 0.5 mM DCPIP, and 6.7 mg/ml E. coli OGDH E1. The reaction mixture was preincubated at 37 °C with the inhibitor for 60 min, then reaction was initiated by adding α-ketoglutarate to a final concentration of 10 mM. To determine the IC50, TPP concentration was set at 60 µM with varying inhibitor concentrations. Specific activity was […]

Setting [2] is: [Compound] = 250 μM, [TPP] = 50 μM.
Setting [3] is: [Compound] = [TPP] = 250 μM, read-out: % Inhibition (1:1).

Chain of E. coli OGDH E1 (P0AFG3 whole entry): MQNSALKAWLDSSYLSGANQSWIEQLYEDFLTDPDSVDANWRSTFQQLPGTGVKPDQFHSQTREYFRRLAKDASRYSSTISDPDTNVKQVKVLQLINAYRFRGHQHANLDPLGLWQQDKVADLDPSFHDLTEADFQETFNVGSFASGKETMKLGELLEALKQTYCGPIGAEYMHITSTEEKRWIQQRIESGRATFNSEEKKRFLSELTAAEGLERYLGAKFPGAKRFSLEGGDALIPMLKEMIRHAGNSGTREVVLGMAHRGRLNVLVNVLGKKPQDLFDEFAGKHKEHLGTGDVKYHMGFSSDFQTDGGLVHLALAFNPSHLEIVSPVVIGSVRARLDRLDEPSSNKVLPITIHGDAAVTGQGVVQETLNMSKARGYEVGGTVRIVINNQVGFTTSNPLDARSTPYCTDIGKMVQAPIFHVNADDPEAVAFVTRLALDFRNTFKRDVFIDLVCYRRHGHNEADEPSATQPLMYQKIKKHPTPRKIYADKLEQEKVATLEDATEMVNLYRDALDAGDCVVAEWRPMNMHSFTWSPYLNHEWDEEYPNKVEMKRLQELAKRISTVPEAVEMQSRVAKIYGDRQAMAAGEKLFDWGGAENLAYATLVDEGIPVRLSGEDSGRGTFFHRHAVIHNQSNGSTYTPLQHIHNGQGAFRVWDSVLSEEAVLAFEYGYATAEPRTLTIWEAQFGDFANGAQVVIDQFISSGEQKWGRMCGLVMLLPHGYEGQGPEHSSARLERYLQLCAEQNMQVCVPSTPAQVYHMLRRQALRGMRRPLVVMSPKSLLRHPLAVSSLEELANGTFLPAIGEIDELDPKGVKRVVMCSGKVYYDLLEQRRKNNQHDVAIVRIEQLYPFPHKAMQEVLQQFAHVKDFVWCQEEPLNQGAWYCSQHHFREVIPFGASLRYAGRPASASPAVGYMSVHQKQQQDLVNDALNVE

Broadly, the inhibition is the drop in the measured response relative to a control, in per cent. One may read the IC50 as the midpoint of a concentration-inhibition curve. For orientation: Ki means the equilibrium dissociation constant of an inhibitor or competing ligand from its target. With `Cc1ncc(Cn2cc(CCCCC(=O)[O-])nn2)c(N)n1.[K+]` [16b], the “% Inhibition (5:1)” value at Porcine PDH E1 (setting [2]) is 77 ± 3%; on E. coli OGDH E1 (setting [2]) it was 54 ± 4%. In addition, the results for the inhibition at 250 µM at Porcine PDH E1 (setting [3]) and at E. coli OGDH E1 (setting [3]) were 40 ± 3% and 22 ± 5%, respectively. The “vs TPP: affinity of the compound relative to that of TPP (= [TPP]/IC50)” value is given as 0.65 at Porcine PDH E1 ([TPP] = 60 µM) and 0.22 at E. coli OGDH E1 ([TPP] = 60 µM). Further, the half-inhibitory concentration (IC50) on Porcine PDH E1 ([TPP] = 60 µM, read-out: IC50 (μM ± SEM)) was 92 ± 13 µM; on E. coli OGDH E1 (read-out: IC50 (μM ± SEM), [TPP] = 60 µM), 273 ± 44 µM. For the same molecule, the inhibition constant Ki on Porcine PDH E1 (calculated from KM(TPP) 0.05 µM using [TPP]/IC50 = KM(TPP)/KI) is 0.077 µM; at E. coli OGDH E1 (calculated from KM(TPP) 3 µM using [TPP]/IC50 = KM(TPP)/KI) it was 14 µM. The “membrane permeability in PAMPA (in words)” value in data set [1] was “impermeable”. Besides, the Papp at 10 h, 500 µM in data set [1] (PAMPA, compounds at 500 µM, 5% DMSO in PBS pH 7.4, 10 hours, room temperature, read-out: PAMPA log Pe (converted)) is 0.398 ×10⁻⁶ cm/s. Further, the “Fa (fraction absorbed)” value in data set [1] (compounds at 500 µM, 5% DMSO in PBS pH 7.4, 10 hours, room temperature) is given as 2%.

Values taken from article PMC11483378, “Triazole-Based Thiamine Analogues as Inhibitors of Thiamine Pyrophosphate-Dependent Enzymes: 1,3-Dicarboxylate for Metal Binding” (ACS Omega, 2024).
